US9717725B2, “Use of opioid antagonists” (THE UNIVERSITY OF CHICAGO, priority 2005, dated 2017)
“Also recorded” adds a separate entry of the source.

Assays:
[1] = test system: microvascular endothelial cells; test: VEGF induced proliferation of endothelial cells, combination (Example 10); assay type: cell-based; conditions: combination of methylnaltrexone and 5-FU
[2] = test system: SW 480 human colorectal cancer cell line; test: Effects on SW 480 cancer cell line
[3] = test system: VEGF receptor 2 (Flk-1); test: Tyrosine phosphorylation of VEGF receptor 2 (immunoprecipitation/immunoblot); assay type: cell-based, human; conditions: HPMVEC
[4] = test system: VEGF receptor; test: Tyrosine phosphorylation of the VEGF receptor in EC (Example 9); assay type: cell-based, human; conditions: for induction of tyrosine phosphorylation of the VEGF receptor: EC
[5] = test system: RhoA; test: RhoA activation assay (RBD bead pull-down, immunoblot); assay type: cell-based, human; conditions: EC
[6] = test system: S1P3 receptor; test: Tyrosine phosphorylation of the S1P3 receptor in EC (Example 9); assay type: cell-based, human; conditions: for induction of tyrosine phosphorylation of the S1P3 receptor: EC
[7] = test system: human pulmonary microvascular endothelial cells (HPMVEC); test: Human pulmonary microvascular EC proliferation assay (CellTiter96 MTS); assay type: cell-based; conditions: for agonist-induced EC proliferation: serum-free media with agonist, MTS assay
[8] = test system: human pulmonary microvascular endothelial cells (HPMVEC); test: Human pulmonary microvascular EC migration assay (Transwell); assay type: cell-based; conditions: for agonist-induced EC migration (% migration): agonist in lower chamber, Transwell
[9] = test system: VEGF receptor 1 (Flt-1); test: Tyrosine phosphorylation of VEGF receptor 1 (immunoprecipitation/immunoblot); assay type: cell-based, human; conditions: HPMVEC
[10] = test system: PDGF receptor; test: Tyrosine phosphorylation of the PDGF receptor in EC (Example 9); assay type: cell-based, human; conditions: for induction of tyrosine phosphorylation of the PDGF receptor: EC
[11] = target: mu-opioid receptor (Homo sapiens, UniProt P35372); test: Serine/threonine phosphorylation of the mu-opioid receptor in EC (Example 9); assay type: cell-based; conditions: for induction of serine/threonine phosphorylation of the mu-opioid receptor: EC
Sequence of mu-opioid receptor (P35372 whole entry): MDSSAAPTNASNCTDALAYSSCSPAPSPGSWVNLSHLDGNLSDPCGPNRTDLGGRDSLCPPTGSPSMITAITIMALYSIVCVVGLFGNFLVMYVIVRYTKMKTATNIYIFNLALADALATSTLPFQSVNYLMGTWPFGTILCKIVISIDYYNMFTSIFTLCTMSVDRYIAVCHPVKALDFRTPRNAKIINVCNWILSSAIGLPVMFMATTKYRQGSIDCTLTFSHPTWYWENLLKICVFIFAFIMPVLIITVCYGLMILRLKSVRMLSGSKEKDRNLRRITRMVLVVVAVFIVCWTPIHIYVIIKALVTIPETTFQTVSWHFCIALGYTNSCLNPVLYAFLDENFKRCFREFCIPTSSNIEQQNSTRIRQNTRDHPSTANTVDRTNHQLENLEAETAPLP

[12] = J. Foss, et al.; cited from earlier work
[13] = test system: tumors; test: Treatment of tumor-bearing mice (Examples 4-7); assay type: in vivo; conditions: eight weeks; for tumor growth and angiogenesis: antagonist orally 5 mg/kg/day with morphine 0.5 mg/kg/day; for angiogenesis and tumor growth, combination of opioid, opioid antagonist and anticancer agent: with morphine and bevacizumab (Avastin) 5 mg/kg every 14 days
[14] = test system: tumor; test: Study in human cancer patients (Examples 6-7); assay type: in vivo; conditions: antagonist orally 5 mg/kg/day for eight weeks with opioid and bevacizumab (Avastin)
[15] = test system: Lewis lung carcinoma (LLC) tumor; test: LLC flank tumor model, continuous MNTX infusion; assay type: in vivo, C57BL/6J mice; conditions: for appearance of macrometastases in the lungs / appearance of micrometastases in the lungs: continuous infusion 10 mg/kg/day
[16] = doses maintaining plasma levels about 25 and 150 ng/mL (Yuan et al.); cited from earlier work
[17] = test system: microvascular endothelial cells; test: VEGF induced migration of endothelial cells, combination (Example 10); assay type: cell-based; conditions: combination of methylnaltrexone and Bevacizumab
[18] = test system: Lewis lung carcinoma (LLC) cells; test: LLC cell proliferation in vitro; assay type: cell-based; conditions: treatment in vitro with methylnaltrexone
[19] = test system: Lewis lung carcinoma (LLC) cells; test: LLC cell invasion assay (Chemicon Cell Invasion Assay Kit); assay type: cell-based; conditions: methylnaltrexone (10 nM or 100 nM)
[20] = test system: Flk-1 expression; conditions: morphine-treated mice versus controls (K. Gupta, personal communication); cited from earlier work
[21] = test system: proliferative retinopathy; conditions: sickle cell disease (Gupta et al., personal communication); cited from earlier work
[22] = pretreatment with MNTX 0.1 μM, 1 hour
[23] = summary statement, concentration dependence

O=c1[nH]cc(F)c(=O)[nH]1 [5-FU, 5-fluorouracil]
inhibition of VEGF induced proliferation of endothelial cells by the combination [1]: synergistically inhibit
IC50 ([2]; Homo sapiens, SW480): ~10 µM

C[C@@H](NC(=O)[C@@H](N)Cc1ccc(O)cc1)C(=O)NCC(=O)N(C)[C@@H](Cc1ccccc1)C(=O)NCCO [DAMGO, [D-Ala^2, N-McPhe^4, Gly^5-ol]-enkephalin]
induction of tyrosine phosphorylation of VEGF receptor 2 (Flk-1) [3]: induce tyrosine phosphorylation
induction of tyrosine phosphorylation of the VEGF receptor [4]: induced tyrosine phosphorylation
RhoA activation by agonist [5]: stimulate RhoA activation
induction of tyrosine phosphorylation of the S1P3 receptor [6]: induced tyrosine phosphorylation
agonist-induced EC proliferation [7]: stimulate HPMVEC proliferation; also recorded: induced proliferation
agonist-induced EC migration (% migration) [8]: induce HPMVEC migration; also recorded: induced
induction of tyrosine phosphorylation of VEGF receptor 1 (Flt-1) [9]: induce tyrosine phosphorylation
induction of tyrosine phosphorylation of the PDGF receptor [10]: induced tyrosine phosphorylation

CCCCCCCCCCCCC/C=C/[C@@H](O)[C@@H](N)COP(=O)(O)O [S1P, sphingosine 1-phosphate]
RhoA activation by agonist [5]: activation
agonist-induced EC proliferation [7]: induced proliferation
agonist-induced EC migration (% migration) [8]: induced
induction of serine/threonine phosphorylation of the mu-opioid receptor [11]: induced serine/threonine phosphorylation

C[C@H]1CN(C[C@H](Cc2ccccc2)C(=O)NCC(=O)O)CC[C@@]1(C)c1cccc(O)c1 [alvimopan]
transpassage across the membrane [12]: some transpassage
tumor growth and angiogenesis [13]: reduction in tumor growth and angiogenesis
angiogenesis and tumor growth, combination of opioid, opioid antagonist and anticancer agent [13]: enhanced result
angiogenesis and tumor growth, combination of opioid, opioid antagonist and anticancer agent [14]: enhanced result

C[N@+]1(CC2CC2)CC[C@]23c4c5ccc(O)c4O[C@H]2C(=O)CC[C@@]3(O)[C@H]1C5 [methylnaltrexone, N-methylnaltrexone]
inhibition of VEGF induced proliferation of endothelial cells by the combination [1]: synergistically inhibit
attenuation of VEGF induced tyrosine phosphorylation of VEGF receptor 2 [3]: attenuates
block of MS and DAMGO induced tyrosine phosphorylation of VEGF receptor 2 (Flk-1) [3]: blocked
attenuation of agonist induced VEGF receptor phosphorylation ([4]; MNTX pretreatment of EC): attenuated
inhibition of agonist-induced RhoA activation ([5]; agonists morphine, DAMGO, VEGF (S1P, PDGF), listed as MNTX): inhibited; also recorded: attenuated
antiproliferation activity ([2]; MNTX alone, P<0.01 compared to control): possesses antiproliferation activity
enhancement of 5-FU's tumoricidal effect ([2]; with 5-FU 10 μM, P<0.05 compared to 5-FU 10 μM only): enhanced 5-FU's tumoricidal effect
attenuation of agonist induced S1P3 receptor phosphorylation ([6]; MNTX pretreatment of EC): attenuated
appearance of macrometastases in the lungs [15]: attenuated
appearance of micrometastases in the lungs [15]: attenuated
appearance of macrometastases in the lungs ([15]; listed as MNTX): attenuated; also recorded: inhibition; also recorded: decrease in lung macrometastases
appearance of micrometastases in the lungs ([15]; listed as MNTX): attenuated; also recorded: inhibition
attenuation of tumor growth ([15]; infusion 10 mg/kg/day, wild-type mice injected with LLC cells): up to 90%
tolerability [16]: well tolerated
attenuation of MS, DAMGO and VEGF stimulated HPMVEC proliferation ([7]; 100 nM MNTX, 100 nM agonist, 24 h): attenuated
inhibition of S1P, VEGF, PDGF, morphine and DAMGO induced EC proliferation [7, 22]: inhibited
inhibition of opioid- and growth factor-induced proliferation of endothelial cells [7, 23]: in a concentration dependent manner
inhibition of MS, DAMGO and VEGF induced HPMVEC migration ([8]; 100 nM MNTX, 100 nM agonist, 18 hours): inhibited
inhibition of S1P, VEGF, PDGF, morphine and DAMGO induced EC migration [8, 22]: inhibited
inhibition of opioid- and growth factor-induced migration of endothelial cells [8, 23]: in a concentration dependent manner
inhibition of VEGF induced migration of endothelial cells by the combination [17]: synergistically inhibit
tumor growth and angiogenesis [13]: reduction in tumor growth and angiogenesis
angiogenesis and tumor growth, combination of opioid, opioid antagonist and anticancer agent [13]: enhanced result
attenuation of VEGF induced tyrosine phosphorylation of VEGF receptor 1 [9]: attenuates
block of MS and DAMGO induced tyrosine phosphorylation of VEGF receptor 1 (Flt-1) [9]: blocked
reduction of LLC proliferation [18]: significantly reduced; also recorded: dose-dependent inhibition
attenuation of agonist induced PDGF receptor phosphorylation ([10]; MNTX pretreatment of EC): attenuated
angiogenesis and tumor growth, combination of opioid, opioid antagonist and anticancer agent [14]: enhanced result
attenuation of agonist induced mu-opioid receptor phosphorylation ([11]; MNTX pretreatment of EC): attenuated
reduction of LLC invasion [19]: significantly reduced; also recorded: dose-dependent inhibition

CN1CC[C@]23c4c5ccc(O)c4O[C@H]2[C@@H](O)C=C[C@H]3[C@H]1C5 [morphine]
induction of tyrosine phosphorylation of VEGF receptor 2 (Flk-1) [3]: induce tyrosine phosphorylation
induction of tyrosine phosphorylation of the VEGF receptor [4]: induced tyrosine phosphorylation
increase in F11 c-1 expression [20]: 10 fold
RhoA activation by agonist [5]: stimulate RhoA activation
RhoA activation by agonist ([5]; listed as MS): stimulate RhoA activation
induction of tyrosine phosphorylation of the S1P3 receptor [6]: induced tyrosine phosphorylation
agonist-induced EC proliferation [7]: induced proliferation
agonist-induced EC proliferation ([7]; listed as MS): stimulate HPMVEC proliferation
agonist-induced EC migration (% migration) [8]: induced
agonist-induced EC migration (% migration) ([8]; listed as MS): induce HPMVEC migration
induction of tyrosine phosphorylation of VEGF receptor 1 (Flt-1) [9]: induce tyrosine phosphorylation
induction of proliferative retinopathy [21]: induced proliferative retinopathy
induction of tyrosine phosphorylation of the PDGF receptor [10]: induced tyrosine phosphorylation

Bevacizumab: anti-VEGF mab (Avastin, Genentech)
inhibition of VEGF induced migration of endothelial cells by the combination [17]: synergistically inhibit

PDGF
RhoA activation by agonist [5]: activation
agonist-induced EC proliferation [7]: induced proliferation
agonist-induced EC migration (% migration) [8]: induced
induction of serine/threonine phosphorylation of the mu-opioid receptor [11]: induced serine/threonine phosphorylation

VEGF
RhoA activation by agonist [5]: stimulate RhoA activation
agonist-induced EC proliferation [7]: stimulate HPMVEC proliferation; also recorded: induced proliferation
agonist-induced EC migration (% migration) [8]: induce HPMVEC migration; also recorded: induced
induction of serine/threonine phosphorylation of the mu-opioid receptor [11]: induced serine/threonine phosphorylation
